# Experimental data reported in paper PMC9877462, “Real time monitoring and evaluation of the inhibition effect of fucoxanthin against α-amylase activity by using QCM-A” (Frontiers in Nutrition, 2023).
# pKi: −log10 of the molar value.
# Molecular target: T1, α-amylase (from human saliva, EC 3.2.1.1) (Homo sapiens, UniProt P0DUB6)
# T1 construct: gene AMY1A
# T1 sequence (P0DUB6 16-511): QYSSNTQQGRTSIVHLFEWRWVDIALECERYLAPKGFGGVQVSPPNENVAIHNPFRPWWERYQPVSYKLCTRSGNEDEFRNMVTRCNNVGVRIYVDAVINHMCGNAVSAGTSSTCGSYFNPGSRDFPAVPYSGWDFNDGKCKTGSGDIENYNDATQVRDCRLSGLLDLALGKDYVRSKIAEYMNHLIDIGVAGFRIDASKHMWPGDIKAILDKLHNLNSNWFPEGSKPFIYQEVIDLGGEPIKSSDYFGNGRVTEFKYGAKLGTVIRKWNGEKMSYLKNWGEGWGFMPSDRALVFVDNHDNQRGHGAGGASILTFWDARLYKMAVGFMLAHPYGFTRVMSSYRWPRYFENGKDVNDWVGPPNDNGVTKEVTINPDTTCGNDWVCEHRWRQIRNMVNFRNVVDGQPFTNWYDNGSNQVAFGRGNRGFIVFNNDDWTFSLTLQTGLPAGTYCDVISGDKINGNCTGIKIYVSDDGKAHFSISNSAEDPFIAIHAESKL
# Experiment: Enzyme inhibition kinetics (Lineweaver-Burk and Dixon plots) with amylose substrate; amylose-immobilized QCM-A hydrolysis assay
# Assay type: biochemical
smiles,measurement,value
CC(=O)O[C@H]1CC(C)(C)C(=C=C/C(C)=C/C=C/C(C)=C/C=C/C=C(C)/C=C/C=C(\C)C(=O)C[C@@]23O[C@]2(C)C[C@@H](O)CC3(C)C)[C@](C)(O)C1 [fucoxanthin],pKi,4.44
